# Assay results published in patent publication US20150045610A1, “METHOD OF MODIFYING SPERMATOGENESIS, SPERMIOGENESIS AND/OR FERTILITY IN MAMMALS” (Monell Chemical Senses Center, priority 2012, published 2015).
# Molecular target: T1, mouse sweet receptor (mT1R2/mT1R3) (Mus musculus, UniProt Q925D8)
# T1 construct: expressed in transfected cells
# T1 sequence (Q925D8 21-858): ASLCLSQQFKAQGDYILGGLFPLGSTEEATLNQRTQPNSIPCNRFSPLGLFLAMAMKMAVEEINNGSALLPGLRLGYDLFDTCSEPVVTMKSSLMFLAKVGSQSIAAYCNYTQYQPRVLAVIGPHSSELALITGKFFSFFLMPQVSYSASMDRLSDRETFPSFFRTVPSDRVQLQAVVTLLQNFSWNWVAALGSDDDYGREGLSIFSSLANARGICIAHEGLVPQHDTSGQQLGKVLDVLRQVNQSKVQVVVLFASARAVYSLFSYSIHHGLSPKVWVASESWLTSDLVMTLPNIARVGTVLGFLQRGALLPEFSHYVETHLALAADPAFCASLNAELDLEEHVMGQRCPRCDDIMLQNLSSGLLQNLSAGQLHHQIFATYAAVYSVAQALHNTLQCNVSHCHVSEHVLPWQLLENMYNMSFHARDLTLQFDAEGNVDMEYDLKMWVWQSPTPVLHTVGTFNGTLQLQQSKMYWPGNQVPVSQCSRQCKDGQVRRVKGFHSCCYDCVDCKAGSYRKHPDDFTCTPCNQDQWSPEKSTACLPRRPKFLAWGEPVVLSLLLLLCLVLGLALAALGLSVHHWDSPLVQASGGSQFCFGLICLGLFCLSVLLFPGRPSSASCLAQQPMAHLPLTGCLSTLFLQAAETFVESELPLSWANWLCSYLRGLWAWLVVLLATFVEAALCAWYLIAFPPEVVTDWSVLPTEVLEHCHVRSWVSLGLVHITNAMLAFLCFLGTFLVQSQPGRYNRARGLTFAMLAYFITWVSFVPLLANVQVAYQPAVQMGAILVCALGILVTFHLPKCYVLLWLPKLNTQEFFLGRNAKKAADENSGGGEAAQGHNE
# T1 sequence (Q925I4 20-843 partner): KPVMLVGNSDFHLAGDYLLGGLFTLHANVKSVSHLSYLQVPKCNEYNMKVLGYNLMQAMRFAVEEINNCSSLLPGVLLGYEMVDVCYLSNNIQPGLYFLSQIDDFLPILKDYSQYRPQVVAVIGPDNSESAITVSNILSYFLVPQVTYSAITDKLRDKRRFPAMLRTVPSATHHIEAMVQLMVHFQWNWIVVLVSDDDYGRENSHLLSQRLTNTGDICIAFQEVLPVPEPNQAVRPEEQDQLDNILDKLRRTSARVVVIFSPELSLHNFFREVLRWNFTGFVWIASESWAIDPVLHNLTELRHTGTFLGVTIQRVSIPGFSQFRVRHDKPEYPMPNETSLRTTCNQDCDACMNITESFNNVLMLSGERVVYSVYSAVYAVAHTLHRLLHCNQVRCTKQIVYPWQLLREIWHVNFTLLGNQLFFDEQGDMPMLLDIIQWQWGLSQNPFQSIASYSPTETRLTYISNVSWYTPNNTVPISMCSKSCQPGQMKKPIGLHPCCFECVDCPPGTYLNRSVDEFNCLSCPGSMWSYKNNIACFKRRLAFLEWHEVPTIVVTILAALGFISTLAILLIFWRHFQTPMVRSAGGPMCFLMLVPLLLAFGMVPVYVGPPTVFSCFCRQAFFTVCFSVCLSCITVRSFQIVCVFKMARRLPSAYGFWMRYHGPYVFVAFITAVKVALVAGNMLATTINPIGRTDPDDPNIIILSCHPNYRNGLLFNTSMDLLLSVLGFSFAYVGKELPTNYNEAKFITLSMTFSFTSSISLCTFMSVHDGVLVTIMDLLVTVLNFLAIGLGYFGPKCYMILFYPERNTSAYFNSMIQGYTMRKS
# Assay: sweet receptor inhibition assay, mouse receptor
# Format: cell-based
# Excerpt: The human T1R3 transmembrane domain determines sensitivity to lactisole, phenoxy herbicides, and fibrates. Inhibition of the receptor's response to sucralose occurred only in the presence of the transmembrane domain of human T1R3. […] Chimeric receptors of T1R3 contained the extracellular portion of human or mouse receptor and the transmembrane domain and C-terminal domain from mouse or human receptor: mh indicates the presence of the mouse extracellular domain and human transmembrane domain; hm indicates the presence of the human extracellular domain and mouse transmembrane domain.
structure (smiles),measurement,value
CC(C)(Oc1ccc(Cl)cc1)C(=O)O [clofibric acid],effect on the mouse receptor,no effect
